“And” between values parts separate entries of the source, which are not always exact repeats. Equal entries are not always repeated.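 Results reflect a 48-hour exposure of cells in 96-well plates to compound at five concentrations. GI50: concentration for 50% inhibition of growth. TGI marks complete inhibition of growth.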
Experiments:
Test in all cases: inhibition of tumour cell growth, NCI panel, 48 h
ACHN renal = system: ACHN renal
HL-60(TB) leukemia = system: HL-60(TB) leukemia
K-562 leukemia = system: K-562 leukemia
U251 CNS = system: U251 CNS
HCT-15 colon = system: HCT-15 colon
SK-MEL-28 melanoma = system: SK-MEL-28 melanoma
SNB-19 CNS = system: SNB-19 CNS
OVCAR-3 ovarian = system: OVCAR-3 ovarian
SR leukemia = system: SR leukemia
MDA-MB-435 = system: MDA-MB-435

SMILES | GI50 (ACHN renal) | TGI (ACHN renal) | GI50 (HL-60(TB) leukemia) | TGI (HL-60(TB) leukemia) | GI50 (K-562 leukemia) | TGI (K-562 leukemia) | GI50 (U251 CNS) | TGI (U251 CNS) | GI50 (HCT-15 colon) | TGI (HCT-15 colon) | GI50 (SK-MEL-28 melanoma) | TGI (SK-MEL-28 melanoma) | GI50 (SNB-19 CNS) | TGI (SNB-19 CNS) | GI50 (OVCAR-3 ovarian) | TGI (OVCAR-3 ovarian) | GI50 (SR leukemia) | TGI (SR leukemia) | GI50 (MDA-MB-435) | TGI (MDA-MB-435)
COc1ccc(C2[C@@H](c3ccccc3)C(=O)N2c2cc(OC)c(OC)c(OC)c2)cc1F (stereo partly specified) | 0.044 µM | > 100 µM | 0.0223 µM | 0.0542 µM | 0.0321 µM | > 100 µM | 0.0359 µM | > 100 µM | 0.0336 µM | > 100 µM | 1.37 µM | > 100 µM | 0.0499 µM | > 100 µM | 0.028 µM | 0.077 µM | 0.0373 µM | > 100 µM | – | –
COc1ccc(/C=N/NC(=O)c2cccc3cc[nH]c23)cc1O | 4.19 µM | > 100 µM | 0.55 µM | > 22.7 µM | 2.17 µM | > 100 µM | 2.4 µM | > 100 µM | 0.615 µM | > 46.1 µM | 6.46 µM | > 100 µM | 4.07 µM | > 100 µM | 0.307 µM | 1.89 µM | 0.349 µM | > 41.2 µM | – | –
CCCCCC[C@@H]1CCC2C(CO)[C@@H](O)CC[C@@H]2C1 (stereo partly specified) | – | 33.6 µM | – | – | – | > 100 µM | – | 33.9 µM | – | 33.4 µM | – | 34.3 µM | – | 35.8 µM | – | 29.3 µM | – | 53.6 µM | – | –
C=CC[C@H](C[C@H](C[C@H](C[C@H](C[C@H](C[C@H](C[C@H](C[C@H](C[C@H](C[C@H](CCCCC)OC)OC)OC)OC)OC)OC)OC)OC)OC)OC | – | > 100 µM | – | > 100 µM | – | > 100 µM | – | > 100 µM | – | – | – | > 100 µM | – | > 100 µM | – | > 100 µM | – | > 100 µM | – | –
Cc1ccc(-n2c3nc(=O)[nH]c(=O)c-3cc3cc([N+](=O)[O-])ccc32)cc1 | 38.1 µM | > 100 µM | 3.98 µM | > 100 µM | 33.4 µM | > 100 µM | 5.14 µM | > 100 µM | 25.5 µM | > 100 µM | 15.7 µM | 42.2 µM | 17.3 µM | 74 µM | 2.18 µM | 4.79 µM | – | – | 4.01 µM | 17.7 µM
CC1=C2C(=C[C@@](C)(CO)[C@@H]2O)C(=O)[C@](C)(O)C12CC2 | 0.0189 µM | 0.0878 µM | – | 0.0327 µM | 0.0222 µM | – | – | 0.0243 µM and 0.0794 µM | – | 0.0344 µM | – | 0.0339 µM and 0.0146 µM | – | 0.0921 µM | – | – | – | – | – | 0.0312 µM
C/C(=N/Nc1ccc([N+](=O)[O-])cc1[N+](=O)[O-])C(CC(C(=O)NCc1ccccc1)/C(C)=N\Nc1ccc([N+](=O)[O-])cc1[N+](=O)[O-])C(=O)NCc1ccccc1 (stereo unspecified) | – | 17.4 µM | – | – | – | – | – | 11.1 µM | – | 26 µM | – | 22.4 µM | – | 31 µM | – | 24.5 µM | – | 35.7 µM | – | –
CCCOc1cc2ccccc2cc1C(=O)Nc1nc(N)c2c(ccc3nccc32)[nH]1 | 0.0641 µM | 2.56 µM | 0.0307 µM | 0.229 µM | 0.0339 µM | 1.26 µM | 0.0527 µM | 1.4 µM | 0.0444 µM | 1.31 µM | 1.01 µM | 2.36 µM | 0.0655 µM | 2.08 µM | 0.0254 µM | 0.0819 µM | – | – | 0.0133 µM | 0.0432 µM
O=C1C=CC(=O)c2nc3c(cc21)CCC3 | – | 33.1 µM | – | – | – | 39.3 µM | – | > 100 µM | – | – | – | 40.4 µM | – | > 100 µM | – | 32 µM | – | 27 µM | – | –
CC1(C)OC1COc1c2occc2cc2ccc(=O)oc12 (stereo unspecified) | – | > 100 µM | – | > 100 µM | – | > 100 µM | – | > 100 µM | – | > 100 µM | – | > 100 µM | – | > 100 µM | – | > 100 µM | – | – | – | > 100 µM
Cn1ccc2c3c(Oc4ccc(NC(N)=O)cc4)ccnc3ccc21 | > 100 µM | > 100 µM | – | – | > 100 µM | > 100 µM | > 100 µM | > 100 µM | > 100 µM | > 100 µM | > 100 µM | > 100 µM | > 100 µM | > 100 µM | > 100 µM | > 100 µM | > 100 µM | > 100 µM | > 100 µM | > 100 µM
CN(C)CC1CC/C(=C\c2ccc(O)cc2)C1=O (stereo unspecified) | – | 10.7 µM | – | 2.91 µM | – | 5.76 µM | – | 12.5 µM | – | 5.48 µM | – | 6.08 µM | – | 31.3 µM | – | 8.33 µM | – | – | – | 10.8 µM
C=C(C)CCOC(c1ccccc1)(c1ccccc1)c1ccccc1 | – | > 100 µM | – | > 100 µM | – | > 100 µM | – | > 100 µM | – | > 100 µM | – | > 100 µM | – | > 100 µM | – | > 100 µM | – | – | – | –
O=C(/C=C/c1ccc([N+](=O)[O-])cc1)c1ccc(NCc2nc3ccccc3[nH]2)cc1 | – | 23 µM | – | 4.25 µM | – | 7.03 µM | – | 3.23 µM | – | 11.8 µM | – | 28 µM | – | 14.5 µM | – | 11.8 µM | – | 8.15 µM | – | –
N#C/C(=C\c1cccc(Cl)c1Cl)c1ccccc1 | – | > 90.8 µM | – | > 100 µM | – | > 100 µM | – | 69.5 µM | – | > 77.6 µM | – | > 100 µM | – | > 90.7 µM | – | > 92.6 µM | – | > 80.9 µM | – | –
COc1cc(C2CC(C)(O)Oc3cc4c(cc32)OCO4)cc(OC)c1OC (stereo unspecified) | – | > 100 µM | – | 0.638 µM | – | > 100 µM | – | 20.1 µM | – | > 100 µM | – | > 100 µM | – | > 100 µM | – | 0.679 µM | – | > 100 µM | – | –
Cc1cc2c(C)[nH]nc2c(C(=O)O)c1C | – | > 100 µM | – | > 100 µM | – | > 100 µM | – | > 100 µM | – | > 100 µM | – | > 100 µM | – | > 100 µM | – | > 100 µM | – | > 100 µM | – | –
COc1ccc(C)cc1-c1cc(Sc2ccccc2)c(-c2cc(C)ccc2OC)o1 | – | > 31.6 µM | – | > 31.6 µM | – | > 31.6 µM | – | > 31.6 µM | – | > 31.6 µM | – | > 31.6 µM | – | > 31.6 µM | – | > 31.6 µM | – | – | – | –
CCCCCCCCCCCCCCCC[N+](C)(C)Cc1ccccc1 | 2.43 µM and 2.36 µM | 7.96 µM and 6.53 µM | 0.859 µM | 2.45 µM | – | – | – | – | 2.86 µM and 3.24 µM | 15.8 µM and > 30.4 µM | 1.68 µM | 3.19 µM | – | – | 1.21 µM | 2.53 µM | – | – | 1.54 µM | 2.91 µM

— PubChem BioAssay (NCI)
